Measured values reported in ChEMBL document CHEMBL4229451, “Recent advances in peptidomimetics antagonists targeting estrogen receptor α-coactivator interaction in cancer therapy” (Bioorg Med Chem Lett, 2018).
Starred links: 1 amine or outer side, 2 acyl side, 3 side chain; linkers in the order of their positions; H or OH if unused. Positions of bridges follow the written chain, without caps; N, C: chain ends. Non-standard residues stand in square brackets, D forms with d. Residues, ends and D or L forms follow the SMILES beside them. X1 = O=C([C@H](CCC/C=C/[*:3])N[*:1])[*:2]

Key:
Estrogen receptor [1] = molecular target: T1, Estrogen receptor (Homo sapiens, UniProt P03372); test: Displacement of THC-ketone from human ERalpha LBD (304 to 554 residues) expressed in Escherichia coli BL21(DE3) after 1 hr by fluorescence assay
T1 sequence (P03372 whole entry): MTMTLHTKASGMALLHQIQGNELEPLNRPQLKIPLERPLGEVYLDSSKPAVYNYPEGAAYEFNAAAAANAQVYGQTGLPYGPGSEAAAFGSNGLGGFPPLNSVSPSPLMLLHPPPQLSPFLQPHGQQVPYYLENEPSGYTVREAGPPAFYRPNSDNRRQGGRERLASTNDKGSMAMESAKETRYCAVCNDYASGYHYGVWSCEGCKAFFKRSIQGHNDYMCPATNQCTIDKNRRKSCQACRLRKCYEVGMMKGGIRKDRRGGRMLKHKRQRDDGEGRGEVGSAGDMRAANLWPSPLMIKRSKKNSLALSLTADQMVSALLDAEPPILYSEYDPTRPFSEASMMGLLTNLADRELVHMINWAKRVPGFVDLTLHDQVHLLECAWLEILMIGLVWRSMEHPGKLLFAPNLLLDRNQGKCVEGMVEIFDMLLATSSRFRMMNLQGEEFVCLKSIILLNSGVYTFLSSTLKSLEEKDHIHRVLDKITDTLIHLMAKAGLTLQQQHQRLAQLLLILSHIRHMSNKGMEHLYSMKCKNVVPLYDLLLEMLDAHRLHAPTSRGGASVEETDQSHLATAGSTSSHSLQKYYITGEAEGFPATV

Estrogen receptor beta [2] = molecular target: Estrogen receptor beta (Homo sapiens, UniProt Q92731); test: Displacement of FAM-LTERHKILHRLLQEGSPSD from ERbeta (unknown origin) (260 to 502 residues) expressed in Escherichia coli rosetta (DE3) after 1 hr by fluorescence polarization assay
Sequence of Estrogen receptor beta (Homo sapiens, UniProt Q92731) (Q92731 whole entry, the tested form may be a part): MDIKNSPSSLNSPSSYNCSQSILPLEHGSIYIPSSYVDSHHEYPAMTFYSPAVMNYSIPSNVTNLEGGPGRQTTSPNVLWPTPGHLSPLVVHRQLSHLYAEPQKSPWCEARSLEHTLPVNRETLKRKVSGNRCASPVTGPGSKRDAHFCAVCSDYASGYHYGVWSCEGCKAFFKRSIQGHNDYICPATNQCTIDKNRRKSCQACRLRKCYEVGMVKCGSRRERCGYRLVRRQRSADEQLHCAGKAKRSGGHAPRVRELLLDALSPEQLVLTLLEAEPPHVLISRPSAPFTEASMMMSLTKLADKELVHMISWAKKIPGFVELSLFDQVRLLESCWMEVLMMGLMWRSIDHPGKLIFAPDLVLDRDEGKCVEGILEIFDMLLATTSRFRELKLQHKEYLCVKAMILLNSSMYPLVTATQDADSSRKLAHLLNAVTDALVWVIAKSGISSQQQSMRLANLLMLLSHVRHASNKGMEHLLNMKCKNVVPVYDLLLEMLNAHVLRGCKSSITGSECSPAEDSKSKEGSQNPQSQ

Estrogen receptor [3] = molecular target: T1, Estrogen receptor; test: Displacement of FAM-LTERHKILHRLLQEGSPSD from ERalpha (unknown origin) (302 to 552 residues) expressed in Escherichia coli rosetta (DE3) after 1 hr by fluorescence polarization assay
Estrogen receptor beta [4] = molecular target: Estrogen receptor beta (Homo sapiens, UniProt Q92731, C334S/C369S/C481S); test: Binding affinity to recombinant human ERbeta LBD (259 to 498 residues) C334S/C369S/C481S triple mutant expressed in Escherichia coli BL21(DE3) using FAM-labelled compound after 1 hr by fluorescence polarization method
Sequence of Estrogen receptor beta (Homo sapiens, UniProt Q92731, C334S/C369S/C481S) (Q92731 whole entry C334S/C369S/C481S, the tested form may be a part): as the sequence (Q92731 whole entry, the tested form may be a part) above, with C334S, C369S, C481S counted along it

[5] = Half life in rabbit serum at 100 uM by RP-HPLC method; format: ADME, cell-free, Oryctolagus cuniculus
Estrogen receptor [6] = molecular target: T1, Estrogen receptor; test: Binding affinity to recombinant human ERalpha LBD (301 to 553 residues) expressed in Escherichia coli BL21(DE3) using FAM-labelled compound after 1 hr by fluorescence polarization method

Ki (Estrogen receptor beta [2]) [nM] | Ki (Estrogen receptor [3]) [nM] | SMILES | other results
 |  | CC[C@H](C)[C@H](NC(=O)[C@H](CCCCN)NC(=O)[C@H](Cc1cnc[nH]1)NC(=O)[C@H](CCCNC(=N)N)NC(=O)[C@H](CCC(=O)O)NC(=O)[C@@H](NC(=O)[C@H](CC(C)C)NC(=O)[C@@H](N)CS)[C@@H](C)O)C(=O)N[C@@H](CC(C)C)C(=O)N[C@@H](Cc1cnc[nH]1)C(=O)N[C@@H](CCCNC(=N)N)C(=O)N[C@@H](CC(C)C)C(=O)N[C@@H](CC(C)C)C(=O)N[C@@H](CCC(N)=O)C(=O)N[C@@H](CCC(=O)O)C(N)=O (H-CLTERHKILHRLLQE-NH2) | Kd (Estrogen receptor [1]): 900 nM
25 | 185 | CSCC[C@H](NC(=O)[C@H](CC(C)C)NC(=O)[C@H](CC(C)C)NC(=O)[C@@H]1CCCN1C(=O)[C@@H](N)Cc1cnc[nH]1)C(=O)N[C@@H](CCCNC(=N)N)C(=O)N[C@@H](CC(C)C)C(=O)N[C@@H](CC(C)C)C(=O)N[C@@H](CC(C)C)C(=O)N[C@@H](CO)C(=O)N1CCC[C@H]1C(N)=O (H-HPLLMRLLLSP-NH2) | 
3640 | 1540 | CSCC[C@H](NC(=O)[C@H](CC(C)C)NC(=O)[C@H](CC(C)C)NC(=O)[C@@H]1CCCN1C(=O)[C@@H](N)Cc1cnc[nH]1)C(=O)N[C@@H](CCCNC(=N)N)C(=O)N[C@@H](CC(C)C)C(=O)N[C@@H](CC(C)C)C(=O)N[C@@H](Cc1cnc[nH]1)C(=O)N[C@@H](Cc1cnc[nH]1)C(=O)N1CCC[C@H]1C(=O)N[C@@H](CO)C(N)=O (H-HPLLMRLLHHPS-NH2) | 
 |  | CC[C@H](C)[C@@H]1NC(=O)[C@@H](NC(=O)[C@H](CCCNC(=N)N)NC(=O)[C@H](CCCCN)NC(=O)[C@@H](N)Cc2c[nH]c3ccccc23)CS/C=C/CCC[C@@H](C(=O)N[C@@H](CC(C)C)C(=O)N[C@@H](CC(C)C)C(=O)N[C@@H](CCC(N)=O)C(=O)N[C@@H](CCC(=O)O)C(N)=O)NC(=O)[C@H](CCCNC(=N)N)NC(=O)[C@H](CC(C)C)NC1=O (H-WKRCILR[X1]LLQE-NH2; thioether 4-8) | Kd (Estrogen receptor beta [4]): 178 nM; half-life at 100 µM [5]: 18.2 h; Kd (Estrogen receptor [6]): 101 nM
